Consider 38 compounds from patent US9617240B2 (TEIJIN PHARMA LIMITED, priority 2013, dated 2017).

A value given as a limit tells only on which side of the number the result lay.

T1 sequence (P80457 whole entry): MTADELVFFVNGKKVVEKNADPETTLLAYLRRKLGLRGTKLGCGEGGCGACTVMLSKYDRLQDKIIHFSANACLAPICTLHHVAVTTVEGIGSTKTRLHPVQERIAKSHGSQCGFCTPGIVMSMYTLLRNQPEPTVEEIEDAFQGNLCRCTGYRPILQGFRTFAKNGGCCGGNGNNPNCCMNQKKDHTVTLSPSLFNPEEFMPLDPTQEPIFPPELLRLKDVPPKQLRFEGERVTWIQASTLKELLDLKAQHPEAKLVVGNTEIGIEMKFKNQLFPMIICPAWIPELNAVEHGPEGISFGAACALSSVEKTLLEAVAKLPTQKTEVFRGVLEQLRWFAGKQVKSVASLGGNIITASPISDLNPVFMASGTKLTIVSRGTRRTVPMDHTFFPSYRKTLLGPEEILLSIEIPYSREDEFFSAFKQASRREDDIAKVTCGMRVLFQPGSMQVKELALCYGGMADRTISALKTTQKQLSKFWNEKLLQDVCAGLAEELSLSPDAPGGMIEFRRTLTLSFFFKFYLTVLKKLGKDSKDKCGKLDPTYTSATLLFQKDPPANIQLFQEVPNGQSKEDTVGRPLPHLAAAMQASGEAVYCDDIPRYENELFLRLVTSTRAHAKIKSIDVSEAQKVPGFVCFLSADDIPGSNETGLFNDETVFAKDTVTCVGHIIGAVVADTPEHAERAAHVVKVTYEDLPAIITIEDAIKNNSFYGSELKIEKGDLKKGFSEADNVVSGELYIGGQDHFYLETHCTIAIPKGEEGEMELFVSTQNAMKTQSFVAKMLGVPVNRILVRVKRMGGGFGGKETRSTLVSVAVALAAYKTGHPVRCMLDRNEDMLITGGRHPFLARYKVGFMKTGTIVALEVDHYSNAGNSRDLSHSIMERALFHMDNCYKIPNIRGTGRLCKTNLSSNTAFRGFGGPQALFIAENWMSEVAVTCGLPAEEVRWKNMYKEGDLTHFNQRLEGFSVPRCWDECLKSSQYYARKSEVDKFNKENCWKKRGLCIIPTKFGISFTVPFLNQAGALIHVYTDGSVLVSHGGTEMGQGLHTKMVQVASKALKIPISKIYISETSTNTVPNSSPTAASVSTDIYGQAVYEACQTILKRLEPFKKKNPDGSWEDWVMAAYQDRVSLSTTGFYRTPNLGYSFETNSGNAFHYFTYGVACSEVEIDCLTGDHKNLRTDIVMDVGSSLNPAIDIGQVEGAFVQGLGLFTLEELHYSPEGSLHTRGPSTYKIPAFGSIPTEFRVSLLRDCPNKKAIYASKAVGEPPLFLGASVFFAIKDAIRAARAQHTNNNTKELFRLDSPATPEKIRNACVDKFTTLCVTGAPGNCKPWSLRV

The experiment has as its target T1, oxidase type xanthine oxidase (derived from buttermilk) (Bos taurus, UniProt P80457).
T1 construct: oxidase type xanthine oxidase (derived from buttermilk, supplied by Calbiochem Novabiochem Corp.); purchased Calbiochem Novabiochem Corp; host or cells: buttermilk (natural source)
As to the kind of experiment: Xanthine oxidase inhibitory activity (absorbance change at 290 nm). It counts as biochemical. The conditions noted are these: xanthine substrate, 100 mM phosphate buffer, absorbance at 290 nm for 5 minutes; read-out: Inhibitory Activity (50% inhibitory concentration with respect to oxidase type xanthine oxidase). The procedure:
The xanthine oxidase inhibitory activity was measured for the compounds synthesized according to the above Examples.
After a test compound was dissolved in DMSO (manufactured by Sigma Co.) so that the concentration is 20 mM, the test compound was prepared and used at a desired concentration at the time of use.
The evaluation of the xanthine oxidase inhibitory activity of the compounds of the present invention was conducted by partially modifying the method described in the literature (Method Enzymatic Analysis, 1, 521-522, 1974). The present evaluation is based on the oxidase type xanthine oxidase inhibitory activity evaluation. That is, a xanthine (manufactured by Sigma Co.) solution prepared at 10 mM in advance using a 20 mM sodium hydroxide solution was adjusted to 30 μM using a 100 mM phosphate buffer solution, and 75 μL/well of each solution was added into a 96-well plate. Aliquots (1.5 μL/well) of each test sample, which was diluted with DMSO so that the concentration is 100 times the final concentration, were added into a 96-well plate, and after mixing, the absorbance at 290 nm was measured by a microplate reader SPECTRA MAX Plus 384 (manufactured by Molecular Devices, LLC). Subsequently, oxidase type xanthine oxidase (derived from buttermilk, supplied by Calbiochem Novabiochem Corp.) was prepared at 30.6 mU/mL using a 100 mM phosphate buffer solution and 73.5 μL/well of each solution was added. Immediately after mixing, the change in absorbance at 290 nm was measured for 5 minutes. The enzyme activity when DMSO was used instead of a test compound solution was defined as 100%, the inhibitory rate of the test compounds was calculated and the 50% inhibitory concentration with respect to oxidase type xanthine oxidase was calculated by fitting to the dose-response curve.
Note that the symbols (+, ++, +++) in the table represent inhibitory activity values as shown below.
Turning to `CC(C)c1cccc(-c2cnc(-n3cc(C(=O)O)cn3)cc2C#N)c1` [Compound 48, 1-{4-cyano-5-[3-(propane-2-yl)phenyl]pyridine-2-yl}-1H-pyrazole-4-carboxylic acid], the IC50 is 1 to 5 nM.
With `Cc1cc(F)ccc1-c1cnc(-n2cc(C(=O)O)cn2)cc1C#N` [Compound 49, 1-[4-cyano-5-(4-fluoro-2-methylphenyl)pyridin-2-yl]-1H-pyrazole-4-carboxylic acid], the IC50 is ≥ 10 nM.
Regarding `COc1cc(F)ccc1-c1cnc(-n2cc(C(=O)O)cn2)cc1C#N` [Compound 50, 1-[4-cyano-5-(4-fluoro-2-methoxyphenyl)pyridin-2-yl]-1H-pyrazole-4-carboxylic acid], the IC50 was 1 to 5 nM.
Under `Cc1cc(-c2cnc(-n3cc(C(=O)O)cn3)cc2C#N)ccc1Cl` [Compound 51, 1-[4-cyano-5-(4-chloro-3-methylphenyl)pyridin-2-yl]-1H-pyrazole-4-carboxylic acid] stands 1 to 5 nM; under `CC(C)Oc1ccc(-c2cnc(-n3cc(C(=O)O)cn3)cc2C#N)cc1` [Compound 52], 1 to 5 nM; under `CC(C)(C)c1ccc(-c2cnc(-n3cc(C(=O)O)cn3)cc2C#N)cc1` [Compound 53, 1-[5-(4-tert-butylphenyl)-4-cyanopyridin-2-yl]-1H-pyrazole-4-carboxylic acid], 1 to 5 nM.
For the compound `N#Cc1cc(-n2cc(C(=O)O)cn2)ncc1-c1ccc(Oc2ccccc2)cc1` [Compound 54, 1-[4-cyano-5-(4-phenoxyphenyl)pyridin-2-yl]-1H-pyrazole-4-carboxylic acid], the IC50 lay within 1 to 5 nM.
`COCc1ccc(-c2cnc(-n3cc(C(=O)O)cn3)cc2C#N)cc1` [Compound 55, 1-{4-cyano-5-[4-(methoxymethyl)phenyl]pyridin-2-yl}-1H-pyrazole-4-carboxylic acid]: the IC50 fell in the range of 1 to 5 nM.
As for `CC(C)COc1cccc(-c2cnc(-n3cc(C(=O)O)cn3)cc2C#N)c1` [Compound 56], the IC50 lay in the range of 5 to 10 nM.
On to `N#Cc1cc(-n2cc(C(=O)O)cn2)ncc1-c1ccc2ccccc2c1` [Compound 57, 1-[4-cyano-5-(naphthalen-2-yl)pyridin-2-yl]-1H-pyrazole-4-carboxylic acid], for which the IC50 was 1 to 5 nM.
Regarding `COc1ccncc1-c1cnc(-n2cc(C(=O)O)cn2)cc1C#N` [Compound 58, 1-[4-cyano-5-(4-methoxypyridin-3-yl)pyridin-2-yl]-1H-pyrazole-4-carboxylic acid], the IC50 is ≥ 10 nM.
Turning to `CN(C)c1ccc(-c2cnc(-n3cc(C(=O)O)cn3)cc2C#N)cn1` [Compound 59, 1-{4-cyano-5-[6-(dimethylamino)pyridin-3-yl]pyridin-2-yl}-1H-pyrazole-4-carboxylic acid], the IC50 was in the range of 1 to 5 nM.
In the case of `N#Cc1cc(-n2cc(C(=O)O)cn2)ncc1-c1cncc(F)c1` [Compound 60, 1-[4-cyano-5-(5-fluoropyridin-3-yl)pyridin-2-yl]-1H-pyrazole-4-carboxylic acid], the IC50 is ≥ 10 nM.
With `N#Cc1cc(-n2cc(C(=O)O)cn2)ncc1-c1csc2ccccc12` [Compound 61, 1-[5-(1-benzothiophen-3-yl)-4-cyanopyridin-2-yl]-1H-pyrazole-4-carboxylic acid], the IC50 was 1 to 5 nM.
On to `N#Cc1cc(-n2cc(C(=O)O)cn2)ncc1-c1ccncc1` [Compound 62, 1-[4-cyano-5-(pyridin-4-yl)pyridin-2-yl]-1H-pyrazole-4-carboxylic acid], for which the IC50 was ≥ 10 nM.
As for `CSc1ccc(-c2cnc(-n3cc(C(=O)O)cn3)cc2C#N)cc1` [Compound 63, 1-{4-cyano-5-[4-(methylsulfanyl)phenyl]pyridin-2-yl}-1H-pyrazole-4-carboxylic acid], the IC50 was 1 to 5 nM.
Then `N#Cc1cc(-n2cc(C(=O)O)cn2)ncc1-c1ccc(N2CCOCC2)cc1` [Compound 64, 1-{4-cyano-5-[4-(morpholine-4-yl)phenyl]pyridine-2-yl}-1H-pyrazole-4-carboxylic acid], with 1 to 5 nM; and `N#Cc1cc(-n2cc(C(=O)O)cn2)ncc1-c1ccc(-c2ccccc2)cc1` [Compound 65, 1-[4-cyano-5-(4-phenylphenyl)pyridine-2-yl]-1H-pyrazole-4-carboxyic acid], with 1 to 5 nM; and `N#Cc1cc(-n2cc(C(=O)O)cn2)ncc1-c1ccc(OCc2ccccc2)cc1` [Compound 66, 1-{5-[4-(benzyloxy)phenyl]-4-cyanopyridine-2-yl}-1H-pyrazole-4-carboxylic acid], with 1 to 5 nM.
Regarding `CN(C)c1cccc(-c2cnc(-n3cc(C(=O)O)cn3)cc2C#N)c1` [Compound 67, 1-{4-cyano-5-[3-(dimethylamino)phenyl]pyridine-2-yl}-1H-pyrazole-4-carboxylic acid], the IC50 lay in the range of 5 to 10 nM.
In the case of `N#Cc1cc(-n2cc(C(=O)O)cn2)ncc1-c1ccc(N)cc1` [Compound 68, 1-[5-(4-aminophenyl)-4-cyanopyridine-2-yl]-1H-pyrazole-4-carboxylic acid], the IC50 was in the range of 1 to 5 nM.
Regarding `CS(=O)(=O)Nc1ccc(-c2cnc(-n3cc(C(=O)O)cn3)cc2C#N)cc1` [Compound 69, 1-[4-cyano-5-(4-methanesulfonamidophenyl)pyridine-2-yl]-1H-pyrazole-4-carboxylic acid], the IC50 was 1 to 5 nM.
As for `N#Cc1cc(-n2cc(C(=O)O)cn2)ncc1-c1ccc(C(=O)N2CCOCC2)cc1` [Compound 70, 1-(4-cyano-5-{4-[(morpholine-4-yl)carbonyl]phenyl}pyridine-2-yl)-1H-pyrazole-4-carboxylic acid], the IC50 was in the range of 1 to 5 nM.
For `N#Cc1cc(-n2cc(C(=O)O)cn2)ncc1-c1cccc([N+](=O)[O-])c1` [Compound 72, 1-[4-cyano-5-(3-nitrophenyl)pyridin-2-yl]-1H-pyrazole-4-carboxylic acid], the IC50 is ≥ 10 nM.
With `N#Cc1cc(-n2cc(C(=O)O)cn2)ncc1-c1ccc(C(=O)c2ccccc2)cc1` [Compound 73, 1-[5-(4-benzoylphenyl)-4-cyanopyridin-2-yl]-1H-pyrazole-4-carboxylic acid], the IC50 fell in the range of 1 to 5 nM.
As to `N#Cc1cc(-n2cc(C(=O)O)cn2)cnc1-c1ccccc1` [Compound 75, 1-(5-cyano-6-phenylpyridin-3-yl)-1H-pyrazole-4-carboxylic acid], the IC50 is ≥ 10 nM.
Turning to `N#Cc1cc(-n2cc(C(=O)O)cn2)cnc1-c1ccccc1F` [Compound 76, 1-[5-cyano-6-(2-fluorophenyl)pyridin-3-yl]-1H-pyrazole-4-carboxylic acid], the IC50 was ≥ 10 nM.
Turning to `N#Cc1cc(-n2cc(C(=O)O)cn2)cnc1-c1ccc(F)cc1F` [Compound 77, 1-[5-cyano-6-(2,4-difluorophenyl)pyridin-3-yl]-1H-pyrazole-4-carboxylic acid], the IC50 was ≥ 10 nM.
Consider `Cc1ccc(F)c(-c2ncc(-n3cc(C(=O)O)cn3)cc2C#N)c1` [Compound 79, 1-[5-cyano-6-(2-fluoro-5-methylphenyl)pyridin-3-yl]-1H-pyrazole-4-carboxylic acid], for which the IC50 is ≥ 10 nM.
Take `N#Cc1cc(-n2cc(C(=O)O)cn2)cnc1-c1cc(F)ccc1F` [Compound 80, 1-[5-cyano-6-(2,5-difluorophenyl)pyridin-3-yl]-1H-pyrazole-4-carboxylic acid]: the IC50 was ≥ 10 nM.
Consider `N#Cc1cc(-n2cc(C(=O)O)cn2)cnc1-c1cccc(F)c1F` [Compound 81, 1-[5-cyano-6-(2,3-difluorophenyl)pyridin-3-yl]-1H-pyrazole-4-carboxylic acid], for which the IC50 was ≥ 10 nM.
Then `Cc1cc(-c2ncc(-n3cc(C(=O)O)cn3)cc2C#N)ccc1F` [Compound 82, 1-[5-cyano-6-(4-fluoro-3-methylphenyl)pyridin-3-yl]-1H-pyrazole-4-carboxyic acid], with ≥ 10 nM; and `Cc1ccc(-c2ncc(-n3cc(C(=O)O)cn3)cc2C#N)cc1F` [Compound 83, 1-[5-cyano-6-(3-fluoro-4-methylphenyl)pyridin-3-yl]-1H-pyrazole-4-carboxylic acid], with 5 to 10 nM.
With `COc1ccc(F)c(-c2ncc(-n3cc(C(=O)O)cn3)cc2C#N)c1` [Compound 84, 1-[5-cyano-6-(2-fluoro-5-methoxyphenyl)pyridin-3-yl]-1H-pyrazole-4-carboxylic acid], the IC50 lay in the range of 5 to 10 nM.
Then `N#Cc1nc(-n2cc(C(=O)O)cn2)ccc1-c1ccccc1` [Compound 85, 1-(6-cyano-5-phenylpyridin-2-yl)-1H-pyrazole-4-carboxylic acid], with ≥ 10 nM; and `N#Cc1nc(-n2cc(C(=O)O)cn2)ccc1-c1ccccc1F` [Compound 86, 1-[6-cyano-5-(2-fluorophenyl)pyridin-2-yl]-1H-pyrazole-4-carboxylic acid], with 5 to 10 nM.
In the case of `Cc1ccc(F)c(-c2ccc(-n3cc(C(=O)O)cn3)nc2C#N)c1` [Compound 88, 1-[6-cyano-5-(2-fluoro-5-methylphenyl)pyridin-2-yl]-1H-pyrazole-4-carboxylic acid], the IC50 was ≥ 10 nM.
Consider `N#Cc1nc(-n2cc(C(=O)O)cn2)ccc1-c1ccc(F)cc1` [Compound 89], for which the IC50 is ≥ 10 nM.
